# Organism: Rattus norvegicus
# Experiment: Open TG-GATES - Regimen: Single
# Format: toxicity, organism-based, Sprague-Dawley
# Design: regimen Single, gender Male, age 6 weeks
# Details: in vivo, po, 5 mg/kg, route gavage, dose level Middle; for APTT / Bas / Eos / Fbg / Hb / Ht / Lym / MCH / MCHC / MCV / Mono / Neu / PT / Plat / RBC / Ret / WBC: tissue Blood; for KIDNEY_L / KIDNEY_R / KIDNEY_TOTAL: tissue Kidney; for ALP / ALT / AST / CRE / Cl / DBIL / GLC / IP / K / LDH / Na / PL / RALB / TBIL / TC / TG / TP / gamma-GTP: tissue Plasma
smiles,measurement,setting,value
COc1cc2c(c(OC)c1OC)-c1ccc(OC)c(=O)cc1[C@@H](NC(C)=O)CC2 [COLCHICINE],APTT,3 h,16.4 s
same,Bas,3 h,0%
same,Eos,3 h,0.8%
same,Fbg,3 h,217.6 mg/dL
same,Hb,3 h,13.6 g/dL
same,Ht,3 h,41.3%
same,Lym,3 h,83.2%
same,MCH,3 h,21.9 pg
same,MCHC,3 h,32.8%
same,MCV,3 h,66.5 fL
same,Mono,3 h,7.2%
same,Neu,3 h,9.2%
same,PT,3 h,12.1 s
same,Plat,3 h,112.7 x10_4/uL
same,RBC,3 h,622 x10_4/ul
same,Ret,3 h,9.5%
same,WBC,3 h,111.5 x10_2/uL
same,KIDNEY_L,3 h,0.9 g
same,KIDNEY_R,3 h,1 g
same,KIDNEY_TOTAL,3 h,1.9 g
same,ALP,3 h,915.6 IU/L
same,ALT,3 h,52.6 IU/L
same,AST,3 h,119.2 IU/L
same,CRE,3 h,0.4 mg/dL
same,Cl,3 h,103.4 meq/L
same,DBIL,3 h,0.046 mg/dL
same,GLC,3 h,193.4 mg/dL
same,IP,3 h,9.1 mg/dL
same,K,3 h,4.5 meq/L
same,LDH,3 h,248 IU/L
same,Na,3 h,139 meq/L
same,PL,3 h,133.8 mg/dL
same,RALB,3 h,3.7 g/dL
same,TBIL,3 h,0.4 mg/dL
same,TC,3 h,79.6 mg/dL
same,TG,3 h,53 mg/dL
same,TP,3 h,5.5 g/dL
same,gamma-GTP,3 h,1 IU/L
same,TERMINAL_BW,6 h,218.4 g
same,APTT,6 h,17.4 s
same,Bas,6 h,0%
same,Eos,6 h,0.6%
same,Fbg,6 h,205.2 mg/dL
same,Hb,6 h,13.5 g/dL
same,Ht,6 h,41.4%
same,Lym,6 h,72.2%
same,MCH,6 h,21 pg
same,MCHC,6 h,32.6%
same,MCV,6 h,64.3 fL
same,Mono,6 h,10.8%
same,Neu,6 h,16.2%
same,PT,6 h,12.5 s
same,Plat,6 h,107.8 x10_4/uL
same,RBC,6 h,644.8 x10_4/ul
same,Ret,6 h,8.9%
same,WBC,6 h,105.2 x10_2/uL
same,KIDNEY_L,6 h,1 g
same,KIDNEY_R,6 h,1 g
same,KIDNEY_TOTAL,6 h,1.9 g
same,ALP,6 h,1038.4 IU/L
same,ALT,6 h,103.8 IU/L
same,AST,6 h,216.8 IU/L
same,CRE,6 h,0.5 mg/dL
same,Cl,6 h,103.2 meq/L
same,DBIL,6 h,0.048 mg/dL
same,GLC,6 h,180.2 mg/dL
same,IP,6 h,9.4 mg/dL
same,K,6 h,4.6 meq/L
same,LDH,6 h,340.6 IU/L
same,Na,6 h,139.6 meq/L
same,PL,6 h,118.4 mg/dL
same,RALB,6 h,3.7 g/dL
same,TBIL,6 h,0.4 mg/dL
same,TC,6 h,64 mg/dL
same,TG,6 h,35.2 mg/dL
same,TP,6 h,5.5 g/dL
same,gamma-GTP,6 h,1 IU/L
same,TERMINAL_BW,9 h,217.1 g
same,APTT,9 h,16.7 s
same,Bas,9 h,0%
same,Eos,9 h,1%
same,Fbg,9 h,207.8 mg/dL
same,Hb,9 h,13.6 g/dL
same,Ht,9 h,41.3%
same,Lym,9 h,67.4%
same,MCH,9 h,21.5 pg
same,MCHC,9 h,32.9%
same,MCV,9 h,65.4 fL
same,Mono,9 h,12%
same,Neu,9 h,20.4%
same,PT,9 h,12.6 s
same,Plat,9 h,108.3 x10_4/uL
same,RBC,9 h,631.6 x10_4/ul
same,Ret,9 h,9.1%
same,WBC,9 h,93.9 x10_2/uL
same,KIDNEY_L,9 h,1 g
same,KIDNEY_R,9 h,1 g
same,KIDNEY_TOTAL,9 h,2 g
same,ALP,9 h,1040.6 IU/L
same,ALT,9 h,165.4 IU/L
same,AST,9 h,290.6 IU/L
same,CRE,9 h,0.5 mg/dL
same,Cl,9 h,103.4 meq/L
same,DBIL,9 h,0.098 mg/dL
same,GLC,9 h,191.6 mg/dL
same,IP,9 h,8.8 mg/dL
same,K,9 h,5.1 meq/L
same,LDH,9 h,265.2 IU/L
same,Na,9 h,137 meq/L
same,PL,9 h,137.6 mg/dL
same,RALB,9 h,3.7 g/dL
same,TBIL,9 h,0.4 mg/dL
same,TC,9 h,79.2 mg/dL
same,TG,9 h,32 mg/dL
same,TP,9 h,5.4 g/dL
same,gamma-GTP,9 h,2.2 IU/L
same,TERMINAL_BW,24 h,226.2 g
same,APTT,24 h,16.3 s
same,Bas,24 h,0%
same,Eos,24 h,1%
same,Fbg,24 h,208.6 mg/dL
same,Hb,24 h,13.6 g/dL
same,Ht,24 h,41.5%
same,Lym,24 h,78.4%
same,MCH,24 h,21.6 pg
same,MCHC,24 h,32.8%
same,MCV,24 h,65.8 fL
same,Mono,24 h,9.8%
same,Neu,24 h,10.8%
same,PT,24 h,11.2 s
same,Plat,24 h,117.7 x10_4/uL
same,RBC,24 h,631.6 x10_4/ul
same,Ret,24 h,7.6%
same,WBC,24 h,120.4 x10_2/uL
same,KIDNEY_L,24 h,1 g
same,KIDNEY_R,24 h,1 g
same,KIDNEY_TOTAL,24 h,2 g
same,ALP,24 h,975.4 IU/L
same,ALT,24 h,65.4 IU/L
same,AST,24 h,110.6 IU/L
same,CRE,24 h,0.6 mg/dL
same,Cl,24 h,104 meq/L
same,DBIL,24 h,0.064 mg/dL
same,GLC,24 h,191.8 mg/dL
same,IP,24 h,5.3 mg/dL
same,K,24 h,4.7 meq/L
same,LDH,24 h,116 IU/L
same,Na,24 h,138 meq/L
same,PL,24 h,125.4 mg/dL
same,RALB,24 h,3.7 g/dL
same,TBIL,24 h,0.4 mg/dL
same,TC,24 h,71.2 mg/dL
same,TG,24 h,58 mg/dL
same,TP,24 h,5.6 g/dL
same,gamma-GTP,24 h,1.2 IU/L
